Patent US20220259254A1, “TRANS-CYCLOOCTENE BIOORTHOGONAL AGENTS AND USES IN CANCER AND IMMUNOTHERAPY” (Tambo, Inc., priority 2019, published 2022)
“Also recorded” adds a separate entry of the source.

What was measured:
MC38 tumor cells = test: MC38 tumor re-challenge study; type: in vivo, C57BL/6 mice; conditions: 5×10^5 MC38 cells SC at left flank on Day 70; versus naïve mice; listed as BIOMATERIAL 1/PRODRUG 1
Experimental: Aside from the dual-tumor groups, this study also investigated a tumor re-implantation in mice inoculated with only one MC38 tumor. On Day 38, all animals in group G2 (Table 1)(n=8) were treated with a second cycle of BIOMATERIAL 1/PRODRUG 1-100-μL intratumoral BIOMATERIAL 1 injection followed by 5 daily doses (1 dose per day) of PRODRUG 1—this time at 11.9 mg/kg/dose Dox Eq (59.3 mg/kg/cycle Dox Eq).
In addition, mice from group G3 (Table 1) (n=5), and mice from dual tumor groups G6, G7, and G8 (n=10) were rechallenged.

MC38 tumor [1] = test: MC38 dual tumor model (injected and non-injected tumor), tumor growth inhibition and survival;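 for all read-outs here: male C57BL/6 mice carrying two subcutaneous MC38 flank tumors, with treatment given peritumorally beside the larger tumor only and both tumors sized by caliper three times per week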; conditions: for response of non-injected tumors: non-injected tumor (FIG. 6C); for antitumor activity on non-injected tumor compared with G4: P<0.001; for 1-T/C (%) / T/C (%): vs G4 saline; for TV, tumor volume at Day 7: Day 7 = treatment start, all groups peritumoral BIOMATERIAL 1; for survival, statistical difference from Saline: log-rank (Mantel-Cox) test; for tumor growth curves, statistical difference from Saline: unpaired t test with Welch's correction for each day, groups 4, 5, 8
Experimental: For groups 4-10 (dual tumor model), Immunocompetent male C57BL/6 mice were inoculated SC in the right flank with 5×10^5 MC38 tumor cells (large injected tumor) and in the left flank with 1×10^5 MC38 tumor cells (small non-injected tumor).
Prior to injection, the MC38 cells were suspended in 0.1 mL DMEM media mixed with 50% Matrigel for tumor development. When the average tumor volume of the large tumor reached approximately 100 mm^3, animals were randomly grouped according to body weight and tumor volume into 10 treatment groups with 5-10 mice per group. All groups received peritumoral biomaterial injections (100 μL/mouse) near the large tumor (hereafter, the injected tumor). One hour later, groups 1, 4 and 10 were IV administered saline control (QD×5 days); groups 2, 8 and 9 were IV administered PRODRUG 1 prodrug (28.6 mg/kg Dox Eq QD×5 days; cumulative dose of 143 mg/kg Dox Eq) and group 5 was IV administered Dox HCl control (MTD; 8.1 mg/kg Q4D×3 doses; cumulative dose of 24.3 mg/kg). Tumor volumes for both tumors were measured three times weekly in two dimensions using a caliper, and the volume expressed in mm^3. 8 groups were used to assess the tumor growth inhibition, while groups 9 and 10 (PRODRUG 1, saline n=10/group) were used to determine the immune cell infiltration using flow cytometry. Groups 3, 6 and 7 (n=10) were used to test Dox+ TLR9 agonist (SL-01) and PRODRUG 1+ TLR9 agonist. The TLR9 agonist was given as an intratumoral injection in the primary tumors alone after the last PRODRUG 1 or Dox dose at 25 μg per mouse.
Eighty-five animals were enrolled into the efficacy study. When tumor volume reached an average volume of approximately 100 mm^3, animals were randomized as below using block randomization by Excel based upon their tumor size. […] 5×10^5 MC-38 cells suspended in 100 μL PBS mixed with 50% matrix gel were inoculated subcutaneously into the right flank. For Groups 4 through 10, 1×10^5MC-38 cells suspended in 100 μL PBS mixed with 50% matrix gel were inoculated subcutaneously into the left flank.
Tumor volume was measured thrice weekly in two dimensions using a caliper, and the volume was expressed in mm^3 using the formula: V=0.5 a×b^2, where a and b are the long and short diameters of the tumor, respectively. The tumor volume was then used for calculations of both T-C and T/C values. T-C was calculated with T as the median time (in days) required for the treatment group tumors to reach a predetermined size, and C as the median time (in days) for the control group tumors to reach the same size.

[2] = test system: tumor-infiltrating lymphocytes (TILs); test: flow cytometry of tumor-infiltrating immune cells in dual MC38 tumors; type: in vivo, C57BL/6 mice; conditions: for % CD45+CD3+ cells versus saline: 2 weeks after treatment completion
Experimental: In the same study, 2 groups (n=10) of mice with dual MC38 tumors were used for tumor immune cell profiling and were treated with either BIOMATERIAL 1/PRODRUG 1 TREATMENT or saline. Each group was further divided into 2 subgroups of 5 mice each. Tumor collection was performed on the first and second subgroups at 1 and 2 weeks, respectively. […] The cell percentage of each population of interest was identified (Table 6).
For tumor samples, tumor tissues were homogenized using the Miltenyi Tumor Dissociation kit. Single cell suspension from tumor samples were RBC lysed, centrifuged to pellet cells, washed with cold PBS and resuspend cell pellets in the staining buffer and store on ice. Cells were then ready for FACS antibody staining.
1. For each sample, added cells (<10×10^6 cells/tube) in the staining buffer, into an Eppendorf tube labeled with correct sample name. • Panel 1: Live-dead/CD45/CD3/CD4/CD8/CD25/PD-1 • Panel 2: Live-dead/CD45/CD3/CD4/CD25/Foxp3
2. For each tissue type (tumor), prepared two extra tubes (see below) and added cells (<10×10^6 cells/tube) in the staining buffer into these two tubes. • Tube: no-color • Tube: live-dead only*** • Tube: no-color (fix/perm) • Tube: live-dead only (fix/perm) • Note: These two tubes served as gating control for each tissue type. • *** The live-dead only tube was also used for live-dead compensation. Compensation for 8 fluorochrome-conjugated antibodies was prepared separately, using compensation beads from BD and following vendor's manual.
3. Prepared FcR blocking solution (100 μL per tube×tube numbers) by diluting FcR blocking antibody at 1/100 in staining buffer • Note: Since two Brilliant Violet dyes were used in the FACS panel, BD Horizon Brilliant Stain Buffer were added at 5 μL per 100 μL FcR blocking solution
4. Resuspended cell pellets in 100 μL FcR blocking solution and incubated at RT in dark for 3 min
5. For panel 1, added FACS antibodies to desired concentrations (2 μg/ml for each antibody). Incubated at 4° C. in dark for 30 min. For panel 2, added FACS antibodies (except foxp3) to desired concentrations (2 μg/ml for each antibody), incubated at 4° C. in dark for 30 min, then fixated/permeabilized the cells at 4° C. for 40-50 min, and added foxp3 antibody to desired concentrations (2 μg/ml) at 4° C. in dark for 40 min.
6. Added 1 ml staining buffer, centrifuged at 350 g for 4 min at 4° C. to wash and pellet cells
7. Resuspended cells in “Tube: no color” with 500 μL staining buffer (no live-dead added)
8. Resuspended cells in all other tubes with 500 μL staining buffer with 1 μg/ml live-dead
9. Cells were ready for FACS analysis and were subjected to analysis by the Attune Nxt Flow Cytomter (ThermoFisher)
For Group 9 and Group 10, 5 and 5 mice were sacrificed at 1 and 2 weeks respectively after dosing completion. Tumors were collected for FACS.

MC38 tumor [3] = test: MC38 subcutaneous syngeneic single tumor model, tumor growth inhibition; type: in vivo, C57BL/6 mice
bacteria = test: activity against bacteria measured by microcalorimetry; type: cell-based; conditions: tested up to 64 μg/ml (32 μM)
Source text: Example A7C can be synthesized using a protocol analogous to Example A7B.

[4] = dual tumor mice, injected tumor
[5] = dual tumor mice, non-injected tumor
[6] = injected tumor, dual tumor mice, D21
[7] = injected tumor, dual tumor mice
[8] = non-injected tumor, dual tumor mice, D24
[9] = non-injected tumor, dual tumor mice
[10] = injected tumor, single tumor mice, D21, vs G1 saline

COc1cccc2c1C(=O)c1c(O)c3c(c(O)c1C2=O)C[C@@](O)(C(=O)CO)C[C@@H]3O[C@H]1CC(NC(=O)O[C@@H]2/C=C/CC[C@](C)(C(=O)NCC(=O)O)CC2)[C@H](O)C(C)O1 (stereo partly shown) [PRODRUG 1]
tumor growth after re-challenge with MC38 cells (MC38 tumor cells): suppressed; also recorded: sustained anti-tumor response | antitumor activity on injected tumor compared with control group G4 (MC38 tumor [1]; [4]): significant antitumor activity | antitumor response / tumor growth inhibition compared with conventional Dox treatment (MC38 tumor [1]; dual tumor mice, injected tumor, p<0.05, listed as BIOMATERIAL 1/PRODRUG 1): significantly improved antitumor response; also recorded: improved tumor growth inhibition | response of non-injected tumors (MC38 tumor [1]; dual tumor mice): sustained anti-tumor responses | antitumor activity on non-injected tumor compared with G4 (MC38 tumor [1]; [5]): significant antitumor activity | overall survival compared with conventional Dox treatment (MC38 tumor [1]; dual tumor mice, p<0.001, listed as BIOMATERIAL 1/PRODRUG 1): significantly improved | 1-T/C (%) (MC38 tumor [1]; [6]): 75% | T/C (%) (MC38 tumor [1]; [6]): 25% | TV, tumor volume at Day 7 (MC38 tumor [1]; [7]): 93 ± 5.6 mm^3 | TV, tumor volume at Day 21 (MC38 tumor [1]; [7]): 322 ± 45.9 mm^3 | survival, statistical difference from Saline (MC38 tumor [1]; dual tumor mice): significantly different | 1-T/C (%) (MC38 tumor [1]; [8]): 70% | T/C (%) (MC38 tumor [1]; [8]): 30% | TV, tumor volume at Day 12 (MC38 tumor [1]; [9]): 42 ± 3.8 mm^3 | TV, tumor volume at Day 24 (MC38 tumor [1]; [9]): 53 ± 5.2 mm^3 | tumor growth curves, statistical difference from Saline (MC38 tumor [1]): significantly different | immune cell profile versus saline group ([2]; 1 week after completion of treatment): no differences | total number of TILs ([2]; injected and non-injected tumors, at 2 weeks, not after 1 week, listed as BIOMATERIAL 1/PRODRUG 1): increased the total number of TILs | PD-1 expression in CD8+ cells versus saline ([2]; injected or non-injected tumors): no difference | percentage of CD4+ cells versus saline ([2]; injected tumor, 2 weeks): significantly higher | percentage of CD8+ cells versus saline ([2]; injected tumor, 2 weeks): significantly higher | percentage of PD-1+CD4+ T cells versus saline ([2]; injected tumors, 2 weeks): higher percentage | % CD45+CD3+ cells versus saline ([2]; injected tumors): increased | percentage of FoxP3+ cells versus saline ([2]; injected tumors, 2 weeks, no statistical significance): lower | CD4+ cell percentage versus saline ([2]; non-injected tumor, 2 weeks): significantly higher | CD4+CD25+ FoxP3+ cells (Tregs) ([2]; non-injected tumors, 2 weeks): no CD4+CD25+ FoxP3+ cells observed | difference in PD-1+CD4+ T cells versus saline ([2]; non-injected tumors, 2 weeks): not observed | % CD45+CD3+ cells versus saline ([2]; non-injected tumors): increased | cell percentage of CD8+ cells versus saline ([2]; non-injected tumors, 2 weeks, no statistical significance): appeared higher | complete remission (MC38 tumor [3]; MC38 model): 10 % of mice treated | 1-T/C (%) (MC38 tumor [3]; [10]): 62% | T/C (%) (MC38 tumor [3]; [10]): 38% | TV, tumor volume at Day 7 (MC38 tumor [3]; injected tumor, single tumor mice, Day 7 = treatment start, all groups peritumoral BIOMATERIAL 1): 94 ± 6.3 mm^3 | TV, tumor volume at Day 21 (MC38 tumor [3]; injected tumor, single tumor mice, Day 21, all groups peritumoral BIOMATERIAL 1): 393 ± 100.5 mm^3 | antitumor activity compared with control group G1 (MC38 tumor [3]; single tumor mice, P<0.001): significant antitumor activity

COc1cccc2c1C(=O)c1c(O)c3c(c(O)c1C2=O)C[C@@](O)(C(=O)CO)C[C@@H]3O[C@H]1C[C@H](N)[C@H](O)[C@H](C)O1 [Dox, doxorubicin, reference compound]
antitumor activity on injected tumor compared with control group G4 (MC38 tumor [1]; [4]): significant antitumor activity | response of non-injected tumors (MC38 tumor [1]; dual tumor mice): progressive growth | antitumor activity on non-injected tumor compared with G4 (MC38 tumor [1]; [5]): significant antitumor activity | 1-T/C (%) (MC38 tumor [1]; [6]): 34% | T/C (%) (MC38 tumor [1]; [6]): 66% | TV, tumor volume at Day 7 (MC38 tumor [1]; [7]): 93 ± 8.5 mm^3 | TV, tumor volume at Day 21 (MC38 tumor [1]; [7]): 810 ± 196.4 mm^3 | survival, statistical difference from Saline (MC38 tumor [1]; dual tumor mice): not significantly different | 1-T/C (%) (MC38 tumor [1]; [8]): 66% | T/C (%) (MC38 tumor [1]; [8]): 34% | TV, tumor volume at Day 12 (MC38 tumor [1]; [9]): 67 ± 18.8 mm^3 | TV, tumor volume at Day 24 (MC38 tumor [1]; [9]): 93 ± 19.2 mm^3 | tumor growth curves, statistical difference from Saline (MC38 tumor [1]): not significantly different

CC(C)CC(C(=O)N[C@H]1C(=O)N[C@@H](CC(N)=O)C(=O)N[C@H]2C(=O)N[C@H]3C(=O)N[C@H](C(=O)N[C@H](C(=O)O)c4cc(O)cc(O)c4-c4cc3ccc4O)[C@H](O)c3ccc(c(Cl)c3)Oc3cc2cc(c3O[C@@H]2O[C@H](CO)[C@@H](O)[C@H](O)[C@H]2O[C@H]2C[C@](C)(NC(=O)O[C@@H]3/C=C/CC[C@](C)(C(=O)NCC(=O)O)CC3)[C@H](O)[C@H](C)O2)Oc2ccc(cc2Cl)[C@H]1O)N(C)C(=O)O[C@@H]1/C=C/CC[C@](C)(C(=O)NCC(=O)O)CC1 (stereo partly shown) [Vanco-Bis-TCO-Glycine]
activity against bacteria (bacteria): no activity
